From ChEMBL document CHEMBL1125997 (Bioorg Med Chem Lett, 1991) come the findings set out here.

For this experiment, the species on record is Cavia porcellus. The experiment can be described thus: Inhibition of histamine-inducedcontraction of the isolated guinea-pig ileum. The note with it: read-out: pA2 (converted). It is filed as functional.
For `CC(C)(C)c1ccc([C@@H](O)CCCN2CCC(C(O)(c3ccccc3)c3ccccc3)CC2)cc1`, the Kb is 19.1 nM.

For the molecule `CC(C)(C)c1ccc([C@H](O)CCCN2CCC(C(O)(c3ccccc3)c3ccccc3)CC2)cc1` [R-TERFENADINE], the Kb is 24.5 nM.

For `CC(C)(C)c1ccc(C(O)CCCN2CCC(C(O)(c3ccccc3)c3ccccc3)CC2)cc1` (stereo not drawn) [TERFENADINE], the Kb was 22.4 nM.
